From ChEMBL document CHEMBL1909046, “DrugMatrix in vitro pharmacology data”

Columns and labels:
[1] = DRUGMATRIX: Sodium/nucleoside co-transporter radioligand binding (ligand: nitrobenzylthioinosine); format: cell membranes, Cavia porcellus, Dunkin-Hartley, Cerebral cortex, Membrane; details: Not Active = under 50% inhibition at 10 µM
[2] = biological target: Beta-3 adrenergic receptor (Homo sapiens, UniProt P13945); experiment: DRUGMATRIX: Adrenergic beta3 radioligand binding (ligand: [125I] Cyanopindolol); format: cell membranes, Membrane; details: hek293; Not Active = under 50% inhibition at 10 µM
Chain of Beta-3 adrenergic receptor (P13945 whole entry): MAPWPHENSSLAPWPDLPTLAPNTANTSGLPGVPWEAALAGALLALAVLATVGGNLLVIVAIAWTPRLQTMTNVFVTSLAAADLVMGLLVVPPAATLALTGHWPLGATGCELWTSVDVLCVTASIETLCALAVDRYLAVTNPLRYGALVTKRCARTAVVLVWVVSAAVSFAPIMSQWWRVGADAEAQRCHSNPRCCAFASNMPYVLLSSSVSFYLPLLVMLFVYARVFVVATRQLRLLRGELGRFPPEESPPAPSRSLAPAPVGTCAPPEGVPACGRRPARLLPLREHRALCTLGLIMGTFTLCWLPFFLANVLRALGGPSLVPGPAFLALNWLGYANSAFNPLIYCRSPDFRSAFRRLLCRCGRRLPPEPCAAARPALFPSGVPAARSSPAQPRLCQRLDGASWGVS

[3] = DRUGMATRIX: ATPase, Na+/K+ enzyme inhibition (substrate: ATP); format: tissue-based, Sus scrofa, Heart; details: Not Active = under 50% inhibition at 10 µM
[4] = biological target: Vascular endothelial growth factor receptor 1 (Homo sapiens, UniProt P17948); format: cell-based; details: huvec; also: in other assays of this panel Not Active means under 50% inhibition at 10 µM
Chain of Vascular endothelial growth factor receptor 1 (P17948 whole entry): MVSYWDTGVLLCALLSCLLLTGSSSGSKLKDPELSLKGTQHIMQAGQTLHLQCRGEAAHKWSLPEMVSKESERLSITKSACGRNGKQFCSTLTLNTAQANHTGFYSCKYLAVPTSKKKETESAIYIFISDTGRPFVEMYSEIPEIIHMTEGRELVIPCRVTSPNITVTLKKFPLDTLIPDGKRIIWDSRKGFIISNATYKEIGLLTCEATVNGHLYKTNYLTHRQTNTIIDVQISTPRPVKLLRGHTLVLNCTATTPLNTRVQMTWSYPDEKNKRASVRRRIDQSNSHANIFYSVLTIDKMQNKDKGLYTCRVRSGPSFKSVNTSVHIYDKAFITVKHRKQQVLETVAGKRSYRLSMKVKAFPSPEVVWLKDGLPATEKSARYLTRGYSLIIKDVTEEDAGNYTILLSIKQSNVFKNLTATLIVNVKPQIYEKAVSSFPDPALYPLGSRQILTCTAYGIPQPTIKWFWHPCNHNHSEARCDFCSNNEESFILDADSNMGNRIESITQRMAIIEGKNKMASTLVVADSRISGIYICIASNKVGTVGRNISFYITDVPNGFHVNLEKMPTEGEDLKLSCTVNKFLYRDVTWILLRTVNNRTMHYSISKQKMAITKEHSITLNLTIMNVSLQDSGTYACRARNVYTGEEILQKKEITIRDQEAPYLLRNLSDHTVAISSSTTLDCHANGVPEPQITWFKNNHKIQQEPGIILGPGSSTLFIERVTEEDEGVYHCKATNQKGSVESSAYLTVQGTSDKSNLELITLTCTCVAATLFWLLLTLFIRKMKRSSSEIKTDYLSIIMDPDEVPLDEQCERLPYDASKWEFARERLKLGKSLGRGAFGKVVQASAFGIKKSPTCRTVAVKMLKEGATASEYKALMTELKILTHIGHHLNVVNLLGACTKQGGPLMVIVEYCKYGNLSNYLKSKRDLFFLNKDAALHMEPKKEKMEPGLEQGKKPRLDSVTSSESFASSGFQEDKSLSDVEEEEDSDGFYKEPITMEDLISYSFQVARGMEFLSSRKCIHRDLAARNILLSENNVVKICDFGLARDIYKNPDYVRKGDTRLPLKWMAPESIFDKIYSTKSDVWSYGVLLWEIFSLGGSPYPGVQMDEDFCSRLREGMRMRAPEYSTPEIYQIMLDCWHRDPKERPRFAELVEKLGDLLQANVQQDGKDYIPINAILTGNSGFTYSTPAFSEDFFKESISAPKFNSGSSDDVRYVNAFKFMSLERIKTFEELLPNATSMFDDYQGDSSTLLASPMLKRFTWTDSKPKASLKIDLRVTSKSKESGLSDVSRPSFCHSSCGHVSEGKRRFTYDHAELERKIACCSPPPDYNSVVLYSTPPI

[5] = biological target: T1, Amine oxidase [flavin-containing] A (Homo sapiens, UniProt P21397); experiment: DRUGMATRIX: Monoamine Oxidase MAO-A enzyme inhibition (substrate: Kynuramine); design: species or system BTI-TN-5B1-4; details: bti-tn-5b1-4; Not Active = under 50% inhibition at 10 µM
T1 sequence (P21397 whole entry): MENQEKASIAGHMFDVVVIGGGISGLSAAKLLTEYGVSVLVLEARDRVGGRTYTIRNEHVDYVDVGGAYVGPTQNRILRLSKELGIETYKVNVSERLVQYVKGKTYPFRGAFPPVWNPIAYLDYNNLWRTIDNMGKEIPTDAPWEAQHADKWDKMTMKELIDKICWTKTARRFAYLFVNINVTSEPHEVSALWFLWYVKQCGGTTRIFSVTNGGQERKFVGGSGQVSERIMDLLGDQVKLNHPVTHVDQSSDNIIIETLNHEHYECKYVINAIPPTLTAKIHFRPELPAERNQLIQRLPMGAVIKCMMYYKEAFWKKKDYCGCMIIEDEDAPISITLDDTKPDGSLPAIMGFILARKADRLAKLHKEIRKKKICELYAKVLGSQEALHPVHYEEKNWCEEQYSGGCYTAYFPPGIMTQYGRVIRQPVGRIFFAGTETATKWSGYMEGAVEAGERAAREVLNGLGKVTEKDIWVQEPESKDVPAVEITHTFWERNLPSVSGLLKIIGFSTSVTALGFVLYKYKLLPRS

[6] = biological target: T2, Muscarinic acetylcholine receptor M2 (Homo sapiens, UniProt P08172); format: cell membranes, CHO-K1, Membrane; details: cho-k1; also: in other assays of this panel Not Active means under 50% inhibition at 10 µM
T2 sequence (P08172 whole entry): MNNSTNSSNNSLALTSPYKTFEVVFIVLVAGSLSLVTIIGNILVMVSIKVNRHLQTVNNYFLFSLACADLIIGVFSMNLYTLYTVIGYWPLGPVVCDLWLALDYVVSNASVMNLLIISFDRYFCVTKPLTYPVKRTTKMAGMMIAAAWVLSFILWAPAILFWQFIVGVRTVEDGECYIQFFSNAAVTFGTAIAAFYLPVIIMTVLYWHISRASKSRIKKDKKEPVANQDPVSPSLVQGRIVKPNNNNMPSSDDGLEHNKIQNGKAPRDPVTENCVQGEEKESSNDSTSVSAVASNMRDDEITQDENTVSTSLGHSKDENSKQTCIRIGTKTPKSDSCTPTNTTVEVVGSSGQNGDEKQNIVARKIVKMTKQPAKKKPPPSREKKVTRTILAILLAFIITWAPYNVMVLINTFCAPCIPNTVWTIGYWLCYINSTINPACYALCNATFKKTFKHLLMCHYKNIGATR

[7] = biological target: Delta-type opioid receptor (Homo sapiens, UniProt P41143); format: cell membranes, HEK293, Membrane; details: hek293; also: in other assays of this panel Not Active means under 50% inhibition at 10 µM
Chain of Delta-type opioid receptor (P41143 whole entry): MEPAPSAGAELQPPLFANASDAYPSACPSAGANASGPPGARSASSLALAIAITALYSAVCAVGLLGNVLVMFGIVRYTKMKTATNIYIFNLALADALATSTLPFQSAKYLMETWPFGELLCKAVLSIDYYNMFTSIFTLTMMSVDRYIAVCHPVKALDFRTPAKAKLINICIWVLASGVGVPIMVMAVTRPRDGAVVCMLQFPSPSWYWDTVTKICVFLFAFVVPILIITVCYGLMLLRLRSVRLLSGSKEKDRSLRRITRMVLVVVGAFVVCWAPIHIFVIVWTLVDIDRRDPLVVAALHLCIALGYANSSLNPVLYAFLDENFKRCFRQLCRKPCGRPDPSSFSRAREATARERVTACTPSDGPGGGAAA

[8] = DRUGMATRIX: Phosphodiesterase PDE3 enzyme inhibition (substrate: [3H]cAMP + cAMP); format: tissue-based, Homo sapiens; details: platelet; Not Active = under 50% inhibition at 10 µM

Row | SMILES | IC50 [1] | Ki [1] | IC50 [2] | IC50 [3] | Ki [3] | IC50 [4] | IC50 [5] | IC50 [6] | IC50 [7] | IC50 [8] | Ki [8] | IC50 ([3]; read-out: IC50) [nM]
1 | CC1=C(C(=O)O)N2C(=O)[C@@H](NC(=O)[C@H](N)c3ccccc3)[C@H]2SC1 [CEPHALEXIN ANHYDROUS] | Not Active | Not Active | Not Active | Not Active | Not Active | Not Active | Not Active | Not Active | Not Active | Not Active | Not Active | –
2 | O=C(N[C@H](CO)[C@H](O)c1ccc([N+](=O)[O-])cc1)C(Cl)Cl [CHLORAMPHENICOL] | Not Active | Not Active | Not Active | Not Active | Not Active | Not Active | Not Active | Not Active | Not Active | Not Active | Not Active | –
3 | ClC(Cl)Cl [CHLOROFORM] | Not Active | Not Active | Not Active | Not Active | Not Active | Not Active | Not Active | Not Active | Not Active | Not Active | Not Active | –
4 | C=C1CC[C@H](O)C/C1=C/C=C1\CCC[C@]2(C)[C@@H]([C@H](C)CCCC(C)C)CC[C@@H]12 [CHOLECALCIFEROL] | Not Active | Not Active | Not Active | Not Active | Not Active | Not Active | Not Active | Not Active | Not Active | Not Active | Not Active | –
5 | C[N+](C)(C)CCO.[Cl-] [CHOLINE CHLORIDE] | Not Active | Not Active | Not Active | Not Active | Not Active | Not Active | Not Active | Not Active | Not Active | Not Active | Not Active | –
6 | CCOC(=O)C(C)(C)Oc1ccc(Cl)cc1 [CLOFIBRATE] | Not Active | Not Active | Not Active | Not Active | Not Active | Not Active | Not Active | Not Active | Not Active | Not Active | Not Active | –
7 | CC(=O)OCC(=O)[C@@]1(O)CC[C@H]2[C@@H]3CCC4=CC(=O)CC[C@]4(C)[C@H]3C(=O)C[C@@]21C [CORTISONE ACETATE] | Not Active | Not Active | Not Active | Not Active | Not Active | Not Active | Not Active | Not Active | Not Active | Not Active | Not Active | –
8 | O=c1ccc2ccccc2o1 [COUMARIN] | Not Active | Not Active | Not Active | Not Active | Not Active | Not Active | Not Active | Not Active | Not Active | Not Active | Not Active | –
9 | C[C@@H]1C[C@@H]([C@H](O)CC2CC(=O)NC(=O)C2)C(=O)[C@@H](C)C1 [CYCLOHEXIMIDE] | Not Active | Not Active | Not Active | Not Active | Not Active | Not Active | Not Active | Not Active | Not Active | Not Active | Not Active | –
10 | C/C=C/C[C@@H](C)[C@@H](O)[C@H]1C(=O)N[C@@H](CC)C(=O)N(C)CC(=O)N(C)[C@@H](CC(C)C)C(=O)N[C@@H](C(C)C)C(=O)N(C)[C@@H](CC(C)C)C(=O)N[C@@H](C)C(=O)N[C@H](C)C(=O)N(C)[C@@H](CC(C)C)C(=O)N(C)[C@@H](CC(C)C)C(=O)N(C)[C@@H](C(C)C)C(=O)N1C [CYCLOSPORINE] | Not Active | Not Active | Not Active | Not Active | Not Active | Not Active | Not Active | Not Active | Not Active | Not Active | Not Active | –
11 | CN(C)/N=N/c1[nH]cnc1C(N)=O [DACARBAZINE] | Not Active | Not Active | Not Active | Not Active | Not Active | Not Active | Not Active | Not Active | Not Active | Not Active | Not Active | –
12 | COc1ccc2c(c1)[C@]13CCCC[C@@H]1[C@H](C2)N(C)CC3 [DEXTROMETHORPHAN] | Not Active | Not Active | Not Active | Not Active | Not Active | Not Active | Not Active | Not Active | Not Active | Not Active | Not Active | –
13 | CC(=O)Nc1c(I)c(NC(C)=O)c(I)c(C(=O)O)c1I [DIATRIZOIC ACID] | Not Active | Not Active | Not Active | Not Active | Not Active | Not Active | Not Active | Not Active | Not Active | Not Active | Not Active | –
14 | COP(=O)(OC)OC=C(Cl)Cl [DICHLORVOS] | Not Active | Not Active | Not Active | Not Active | Not Active | Not Active | Not Active | Not Active | Not Active | Not Active | Not Active | –
15 | O=C(O)Cc1ccccc1Nc1c(Cl)cccc1Cl [DICLOFENAC] | Not Active | Not Active | Not Active | Not Active | Not Active | Not Active | Not Active | Not Active | Not Active | Not Active | Not Active | –
16 | C[C@H]1O[C@@H](O[C@H]2[C@@H](O)C[C@H](O[C@H]3[C@@H](O)C[C@H](O[C@H]4CC[C@@]5(C)[C@H](CC[C@@H]6[C@@H]5CC[C@]5(C)[C@@H](C7=CC(=O)OC7)CC[C@]65O)C4)O[C@@H]3C)O[C@@H]2C)C[C@H](O)[C@@H]1O [DIGITOXIN] | Not Active | Not Active | Not Active | – | – | Not Active | Not Active | Not Active | Not Active | Not Active | Not Active | 225
17 | CCN1CC(CCN2CCOCC2)C(c2ccccc2)(c2ccccc2)C1=O (centres undefined) [DOXAPRAM] | Not Active | Not Active | Not Active | Not Active | Not Active | Not Active | Not Active | Not Active | Not Active | Not Active | Not Active | –
18 | Cn1c(=O)c2c(ncn2CC2OCCO2)n(C)c1=O [DOXOFYLLINE] | Not Active | Not Active | Not Active | Not Active | Not Active | Not Active | Not Active | Not Active | Not Active | Not Active | Not Active | –
19 | COc1cccc2c1C(=O)c1c(O)c3c(c(O)c1C2=O)C[C@@](O)(C(=O)CO)C[C@@H]3O[C@H]1C[C@H](N)[C@H](O)[C@H](C)O1 [DOXORUBICIN] | Not Active | Not Active | Not Active | Not Active | Not Active | Not Active | Not Active | Not Active | Not Active | Not Active | Not Active | –
20 | COc1cccc2c1C(=O)c1c(O)c3c(c(O)c1C2=O)C[C@@](O)(C(=O)CO)C[C@@H]3O[C@H]1C[C@H](N)[C@@H](O)[C@H](C)O1 [EPIRUBICIN] | Not Active | Not Active | Not Active | Not Active | Not Active | Not Active | Not Active | Not Active | Not Active | Not Active | Not Active | –
